Results: patent US20120195929A1, “COMPOUNDS THAT MODULATE AUTOIMMUNITY AND METHODS OF USING THE SAME” (priority 2009, published 2012)
“Also recorded” adds a separate entry of the source.

Tests used:
C57BL/6 splenocytes = assay: IL-10 ELISPOT, C57BL/6 splenocytes (I-A^b); assay type: cell-based, C57BL/6 mice; settings: C57BL/6, I-A^b
Text: (§1) Balb/c mice have I-A^d as their class II antigen presenting molecule. I-A^d is structurally similar to I-A^g7 of the NOD, with both strains having identical I-A alpha chains (17 amino acid differences in the I-A beta chains). C57BL/6 mice have I-A^b as their class II antigen presenting molecule. Both strains lack the basic pocket 9 in the peptide binding groove.

NOD mice splenocytes = assay: Ex vivo ELISPOT of splenocytes from NOD mice treated in vivo; settings: 80 mg/kg/day intraperitoneal for 5 days, 10 week old female NOD mice; vs PBS
T cell hybridoma 8-1.1α1 = T cell hybridoma 8-1.1α1 response to B:9-23 peptide presented by I-A^g7; assay type: cell-based, mouse
Text: B:9-23 peptide and small molecule binding to panel a) T cell hybridoma 8-1.1α1, panel b) hybridoma BDC 12-4.1, and panel c) hybridoma BDC 12-4.4. […] Dotted line is at the stimulation index of the B:9-23 peptide. TT=tetanus toxin (negative control peptide).
TT=tetanus toxin (negative control peptide). B:19(A)=substitution of the native cysteine for alanine at position 19 in B:9-23. […] Results are given as a stimulation index (SI) from triplicate cultures+s.e.m. The data are representative of at least three independent experiments. […] The figure is representative of three independent experiments.
The top 40 scoring compounds (shown in Table 1) were screened for their ability to alter anti-B:9-23 T cell responses to three different T cell hybridomas, all with the dominant conserved Vα5D-4 TCR element but different CDR3α, Jα, and TCRβ chains. […] The same assays evaluating hybridoma response were performed using 40 random compounds from the NCI/DTP repository.

NOD mice = assay: Diabetes prevention study in NOD mice; settings: 80 mg/kg/day i.p. 5 days per week from 4 to 21 weeks of age; p<0.001 vs PBS controls
[1] = tested on: I-A^g7 congenic splenocytes; assay: IL-10 ELISPOT, splenocytes from C57BL/6 mice congenic for I-A^g7; assay type: cell-based; settings: C57BL/6 congenic for I-A^g7
Text: as §1

NOD splenocytes = assay: IL-10 ELISPOT, in vitro culture of NOD splenocytes; settings: stimulated with glyphosine and B:9-23 peptide
Balb/c splenocytes = assay: IL-10 ELISPOT, Balb/c splenocytes (I-A^d); assay type: cell-based, Balb/c mice
Text: as §1

BDC 12-4.1 splenocytes = assay: ELISPOT and supernatant cytokines, transgenic BDC 12-4.1 Rag−/− mouse splenocytes; assay type: cell-based
Experimental: Number of spots for each well is shown in the upper left hand corner.
The in vitro response of a monoclonal T cell population targeted to the B:9-23 peptide (rather than hybridomas) was evaluated by enzyme-linked immunospot (ELISPOT). […] Stimulation without the addition of B:9-23 peptide was unexpected and could be due to in vivo insulin peptide-MHC complexes present in the spleen. As shown in panel d of FIG. 3, both IL-10 (FIG. 3c) and IFN-γ (FIG. 3d) were quantified in the supernatant of stimulated splenocytes.

I-A^g7 = assay: Direct binding of biotinylated insulin B:9-23 peptide to purified I-A^g7; parameters: species or system mouse; settings: 500 nM; increasing biotinylated B:9-23; 2 h and 24 h
BDC 2.5 T cell hybridoma = BDC 2.5 T cell hybridoma response to chromogranin peptide mimotope presented by I-A^g7; assay type: cell-based, mouse; settings: chromogranin peptide mimotope presented by I-A^g7 (FIG. 2d)

## O=C(O)CN(CP(=O)(O)O)CP(=O)(O)O [Glyphosine, N,N-bis(phosphonomethyl)glycine]
C57BL/6 splenocytes
  IL-10 ELISPOT response to compound plus B:9-23 peptide: failed to respond
NOD mice splenocytes
  ex vivo IFN-γ ELISPOT: no change in IFN-γ
  ex vivo IL-10 ELISPOT: upregulation of IL-10
T cell hybridoma 8-1.1α1; FIG. 2c
  TCR stimulation with other modified B:9-23 insulin peptides: enhanced TCR stimulation
T cell hybridoma 8-1.1α1; Mus musculus, T-cell, with B:9-23 peptide (FIG. 2b), read-out: EC50 concentration, enhancement of TCR stimulation
  EC50: 70.6 nM
T cell hybridoma 8-1.1α1; at 500 nM
  maximal stimulatory effect, fold greater than peptide alone: approximately 2.5 fold
T cell hybridoma 8-1.1α1; with B:9-23 peptide
  concentration of maximal stimulatory effect: 500 nM
T cell hybridoma 8-1.1α1; with B:9-23 peptide (FIG. 2b)
  lowest concentration at which an effect was seen: 10 nM
T cell hybridoma 8-1.1α1; with vs without B:9-23 peptide (FIG. 2b)
  TCR stimulation, dependence on peptide: modulated TCR stimulation only when peptide is present
NOD mice
  development of diabetes: Prevention of diabetes occurred as long as therapy was administered
[1]
  IL-10 ELISPOT response to compound plus B:9-23 peptide: responded
NOD splenocytes
  IL-10 producing cells (ELISPOT): three- to four-fold increase
Balb/c splenocytes
  IL-10 ELISPOT response to compound plus B:9-23 peptide: failed to respond
BDC 12-4.1 splenocytes; in vitro, 500 nM
  IFN-γ positive cells (ELISPOT): much smaller increase in IFN-γ positive cells
BDC 12-4.1 splenocytes; in vitro, 500 nM, with and without B:9-23 peptide
  IL-10 positive cells (ELISPOT): dramatically enhances IL-10 positive cells
BDC 12-4.1 splenocytes; with B:9-23 peptide, compared to peptide alone
  IFN-γ levels in supernatant: not increased; also recorded: decreases IFN-γ levels
I-A^g7
  B:9-23 peptide binding to empty I-A^g7: directly enhance B:9-23 peptide binding
BDC 2.5 T cell hybridoma
  peptide stimulation of BDC 2.5 hybridoma: did not enhance peptide stimulation
